Assay results as given in ChEMBL document CHEMBL6120962, “New Mitochondria-Targeted Fisetin Derivative Compromises Mitophagy and Limits Survival of Drug-Induced Senescent Breast Cancer Cells” (J Med Chem, 2024).
The source made the active and inactive calls. The rule behind the calls is not given here.

Experiments:
[1] = test system: Mitochondrial membrane; experiment: Induction of mitochondrial membrane potential depolarization in human HCC1500 cells at 1 uM incubated for 24 hrs by 7-AAD staining based flow cytometric analysis; format: cell membranes
[2] = test system: HCC1428; experiment: Induction of mitochondrial dysfunction in tamoxifen-induced senescent human HCC1428 cells assessed as decrease in coupling efficiency respiration at 5 uM incubated for 6 hrs by real-time analysis; format: functional, cell-based
[3] = test system: ZR-75-30; experiment: Induction of apoptosis in tamoxifen-induced senescent human ZR-75-30 cells assessed as increase in caspase 3 level incubated for 24 hrs by immunostaining based imaging cytometric analysis; format: functional, cell-based
[4] = test system: Mitochondrial membrane; experiment: Induction of mitochondrial membrane potential depolarization in human CAMA-1 cells at 1 uM incubated for 24 hrs by 7-AAD staining based flow cytometric analysis; format: cell membranes
[5] = test system: T47D; experiment: Antitumor activity against ER-positive human T47D cells xenografted in Danio rerio embryo assessed as decrease in tumor size at 1 to 5 uM administered for 48 hrs by imaging analysis; format: functional, cell-based; settings: dose 1-5 µM
[6] = test system: Mitochondrial membrane; experiment: Induction of mitochondrial membrane potential depolarization in human MCF-10F cells at 5 uM incubated for 24 hrs by 7-AAD staining based flow cytometric analysis; format: cell membranes
[7] = test system: ZR-75-30; experiment: Effect on IL-8 level in human ZR-75-30 cells at 5 uM incubated for 24 hrs by immunostaining based imaging cytometric analysis; format: functional, cell-based
[8] = test system: Mitochondrial membrane; experiment: Induction of mitochondrial membrane potential depolarization in human HCC1428 cells assessed as increase in fraction of depolarized dead cells at 5 uM incubated for 24 hrs by 7-AAD staining based flow cytometric analysis; format: cell membranes
[9] = test system: CAMA-1; experiment: Induction of senescence in human CAMA-1 cells assessed as […] in beta-galactosidase activity at 5 uM incubated for 24 hrs by immunostaining based imaging cytometric analysis; format: functional, cell-based
[10] = test system: HCC1428; experiment: Induction of mitochondrial dysfunction in human HCC1428 cells assessed as decrease in coupling efficiency at 5 uM incubated for 6 hrs by real time analysis; format: functional, cell-based
[11] = test system: Mitochondrial membrane; experiment: Induction of mitochondrial membrane potential depolarization in human ZR-75-30 cells at 1 uM incubated for 24 hrs by 7-AAD staining based flow cytometric analysis; format: cell membranes
[12] = test system: HCC1428; experiment: Induction of alternative mitophagy in tamoxifen-induced senescent human HCC1428 cells assessed as increase in Rab9 level at 1 to 5 uM by immunostaining based imaging cytometric analysis; format: functional, cell-based; settings: dose 1-5 µM
[13] = test system: HCC1428; experiment: Induction of apoptosis in tamoxifen-induced senescent human HCC1428 cells assessed as decrease in Bcl2 level at 5 uM incubated for 24 hrs by Western blot analysis; format: functional, cell-based
[14] = test system: HCC1428; experiment: Induction of mitochondrial dysfunction in human HCC1428 cells assessed as decrease in spare respiratory capacity at 5 uM incubated for 6 hrs by real time analysis; format: functional, cell-based
[15] = test system: MCF-10F; experiment: Induction of apoptosis in tamoxifen-induced senescent human MCF-10F cells assessed as assessed as phosphatidylserine externalization at 1 to 5 uM incubated for 24 hrs by Annexin V-FITC staining based flow cytometric analysis; format: functional, cell-based; settings: dose 1-5 µM
[16] = test system: ZR-75-30; experiment: Induction of oxidative stress in tamoxifen-induced senescent human ZR-75-30 cells assessed as increase in mitochondrial SOD2 level at 1 to 5 uM incubated for 24 hrs by MitoSOX red superoxide indicator based fluorescence analysis; format: functional, cell-based; settings: dose 1-5 µM
[17] = test system: HCC1428; experiment: Induction of autophagy in tamoxifen-induced senescent human HCC1428 cells assessed as increase in ULK1 level at 1 to 5 uM by immunostaining based imaging cytometric analysis; format: functional, cell-based; settings: dose 1-5 µM
[18] = test system: MCF-10F; experiment: Induction of mitochondrial dysfunction in human MCF-10F cells assessed as increase in proton leak at 5 uM incubated for 6 hrs by real time analysis; format: functional, cell-based
[19] = test system: MCF-10F; experiment: Induction of mitochondrial dysfunction in human MCF-10F cells assessed as decrease in spare respiratory capacity at 5 uM incubated for 6 hrs by real time analysis; format: functional, cell-based
[20] = test system: ZR-75-30; experiment: Induction of apoptosis in tamoxifen-induced senescent human ZR-75-30 cells assessed as phosphatidylserine externalization at 1 to 5 uM incubated for 24 hrs by Annexin V-FITC staining based flow cytometric analysis; format: functional, cell-based; settings: dose 1-5 µM
[21] = test system: CAMA-1; experiment: Induction of apoptosis in human CAMA-1 cells assessed as phosphatidylserine externalization at 1 to 5 uM incubated for 24 hrs by Annexin V-FITC staining based flow cytometric analysis; format: functional, cell-based; settings: dose 1-5 µM
[22] = test system: MCF-10F; experiment: Induction of apoptosis in human MCF-10F cells assessed as assessed as phosphatidylserine externalization at 1 to 5 uM incubated for 24 hrs by Annexin V-FITC staining based flow cytometric analysis; format: functional, cell-based; settings: dose 1-5 µM
[23] = test system: HCC1500; experiment: Induction of oxidative stress in tamoxifen-induced senescent human HCC1500 cells assessed as increase in mitochondrial superoxide production at 1 to 5 uM incubated for 24 hrs by MitoSOX red superoxide indicator based fluorescence analysis; format: functional, cell-based; settings: dose 1-5 µM
[24] = test system: ZR-75-30; experiment: Induction of […] in human tamoxifen-induced senescent human ZR-75-30 cells at 1 to 5 uM by incubated for 24 hrs Annexin V-FITC staining based flow cytometric analysis; format: functional, cell-based; settings: dose 1-5 µM
[25] = test system: BJ; experiment: Cytotoxicity against human BJ cells assessed as effect on metabolic activity at 1 to 10 uM incubated for 24 hrs by MTT assay; format: toxicity, cell-based; settings: dose 1-10 µM
[26] = test system: MCF-10F; experiment: Induction of mitochondrial dysfunction in human MCF-10F cells assessed as decrease in ATP production at 5 uM incubated for 6 hrs by real time analysis; format: functional, cell-based
[27] = test system: CAMA-1; experiment: Induction of senescence in human CAMA-1 cells assessed as increase in IL-8 level at 5 uM incubated for 24 hrs by immunostaining based imaging cytometric analysis; format: functional, cell-based
[28] = test system: MCF-10F; experiment: Effect on Bcl-rambo protein level in tamoxifen-induced senescent human MCF-10F cells at 1 to 5 uM incubated for 24 hrs by Western blot analysis; format: functional, cell-based; settings: dose 1-5 µM
[29] = test system: MCF7; experiment: Antitumor activity against ER-positive human MCF7 cells xenografted in Danio rerio embryo assessed as increase in Bax mRNA level at 1 to 5 uM administered for 48 hrs by RT-PCR analysis; format: functional, cell-based; settings: dose 1-5 µM
[30] = test system: HCC1500; experiment: Induction of senescence in human HCC1500 cells assessed as increase in IL-8 level at 5 uM incubated for 24 hrs by immunostaining based imaging cytometric analysis; format: functional, cell-based
[31] = test system: HCC1428; experiment: Induction of apoptosis in tamoxifen-induced senescent human HCC1428 cells assessed as phosphatidylserine externalization at 1 to 5 uM incubated for 24 hrs by Annexin V-FITC staining based flow cytometric analysis; format: functional, cell-based; settings: dose 1-5 µM
[32] = test system: HCC1500; experiment: Anticancer activity against ER-positive human HCC1500 cells assessed as effect on metabolic activity upto 10 uM incubated for 24 hrs by MTT assay; format: functional, cell-based
[33] = test system: HCC1428; experiment: Induction of oxidative stress in tamoxifen-induced senescent human HCC1428 cells assessed as increase in mitochondrial SOD2 level at 1 to 5 uM incubated for 24 hrs by MitoSOX red superoxide indicator based fluorescence analysis; format: functional, cell-based; settings: dose 1-5 µM
[34] = test system: ZR-75-30; experiment: Induction of oxidative stress in tamoxifen-induced senescent human ZR-75-30 cells assessed as increase in mitochondrial superoxide production at 1 to 5 uM incubated for 24 hrs by MitoSOX red superoxide indicator based fluorescence analysis; format: functional, cell-based; settings: dose 1-5 µM
[35] = test system: Mitochondrial membrane; experiment: Induction of mitochondrial membrane potential depolarization in tamoxifen-induced senescent human HCC1500 cells assessed as increase in depolarized dead cell level at 1 to 5 uM incubated for 24 hrs by 7-AAD staining based flow cytometric analysis; format: cell membranes; settings: dose 1-5 µM
[36] = test system: MCF-10F; experiment: Induction of mitochondrial dysfunction in tamoxifen-induced senescent human MCF-10F cells assessed as decrease in ATP production at 5 uM incubated for 6 hrs by real-time analysis; format: functional, cell-based

**Q.** Which Activity [1] does the source give for CC(=O)Oc1ccc2c(=O)c(OCCCC[P+](c3ccccc3)(c3ccccc3)c3ccccc3)c(-c3ccc4c(c3)OC(c3ccccc3)(c3ccccc3)O4)oc2c1.[I-] here?
**A.** Active

**Q.** What about the Activity [2] of the same compound?
**A.** Active

**Q.** What about the Activity [3] of the same compound?
**A.** Active

**Q.** What about the Activity [4] of the same compound?
**A.** Active

**Q.** What about the Activity [5] of the same compound?
**A.** Active

**Q.** And the Activity [6]?
**A.** inactive

**Q.** And the Activity [7]?
**A.** inactive

**Q.** And the Activity [8]?
**A.** Active

**Q.** What about the Activity [9] of the same compound?
**A.** Active

**Q.** What about the Activity [10] of the same compound?
**A.** Active

**Q.** And the Activity [11]?
**A.** Active

**Q.** And the Activity [12]?
**A.** inactive

**Q.** What about the Activity [13] of the same compound?
**A.** Active

**Q.** What about the Activity [14] of the same compound?
**A.** Active

**Q.** What about the Activity [15] of the same compound?
**A.** Active; Slight Effect Observed

**Q.** And the Activity [16]?
**A.** Active

**Q.** What about the Activity [17] of the same compound?
**A.** Active

**Q.** What about the Activity [18] of the same compound?
**A.** inactive

**Q.** And the Activity [19]?
**A.** inactive

**Q.** And the Activity [20]?
**A.** Active

**Q.** What about the Activity [21] of the same compound?
**A.** Active

**Q.** And the Activity [22]?
**A.** inactive

**Q.** What about the Activity [23] of the same compound?
**A.** Active

**Q.** And the Activity [24]?
**A.** Active

**Q.** And the Activity [25]?
**A.** Non-toxic

**Q.** What about the Activity [26] of the same compound?
**A.** inactive

**Q.** And the Activity [27]?
**A.** inactive

**Q.** What about the Activity [28] of the same compound?
**A.** inactive

**Q.** And the Activity [29]?
**A.** Active

**Q.** What about the Activity [30] of the same compound?
**A.** inactive

**Q.** And the Activity [31]?
**A.** Active

**Q.** What about the Activity [32] of the same compound?
**A.** Active

**Q.** And the Activity [33]?
**A.** Active

**Q.** And the Activity [34]?
**A.** Active

**Q.** And the Activity [35]?
**A.** Active

**Q.** And the Activity [36]?
**A.** inactive
